Test results from patent US8952024B2, “Herbicidal pyrimidone derivatives” (E I du Pont de Nemours and Company, priority 2009, dated 2015).

Columns and labels:
Assay in all cases: Test B pre-/postemergence plant response
Type in all cases: in vivo
[1] = tested on: lambsquarters (Chenopodium album)
Procedure, shortened: (§1)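 Pre-em in loam/sand; post-em at 1–4 leaf (2–18 cm) in peat mix. Solvent + surfactant formulation. Greenhouse 13–15 d; visual % control vs untreated, 0–100.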

corn (Zea mays) = tested on: corn (Zea mays)
Procedure, shortened: as §1

[2] = tested on: blackgrass (Alopecurus myosuroides)
Procedure, shortened: as §1

kochia (Kochia scoparia) = tested on: kochia (Kochia scoparia)
Procedure, shortened: as §1

[3] = tested on: large crabgrass (Digitaria sanguinalis)
Procedure, shortened: as §1

[4] = tested on: yellow nutsedge (Cyperus esculentus)
Procedure, shortened: as §1

[5] = tested on: morningglory (Ipomoea coccinea)
Procedure, shortened: as §1

[6] = tested on: johnsongrass (Sorghum halepense)
Procedure, shortened: as §1

soybean (Glycine max) = tested on: soybean (Glycine max)
Procedure, shortened: as §1

[7] = tested on: goosegrass (Eleusine indica)
Procedure, shortened: as §1

[8] = tested on: velvetleaf (Abutilon theophrasti)
Procedure, shortened: as §1

[9] = tested on: pigweed (Amaranthus retroflexus)
Procedure, shortened: as §1

[10] = tested on: Surinam grass (Brachiaria decumbens)
Procedure, shortened: as §1

[11] = tested on: woolly cupgrass (Eriochloa villosa)
Procedure, shortened: as §1

[12] = tested on: downy bromegrass (Bromus tectorum)
Procedure, shortened: as §1

wild oat (Avena fatua) = tested on: wild oat (Avena fatua)
Procedure, shortened: as §1

[13] = tested on: green foxtail (Setaria viridis)
Procedure, shortened: as §1

[14] = 16 g ai/ha, Postemergence, 0 to 100 scale
[15] = 31 g ai/ha, postemergence, scale 0 to 100, 0 is no effect, 100 is complete control
[16] = 62 g ai/ha, postemergence, 0 is no effect, 100 is complete control, 13 to 15 days
[17] = Postemergence, 125 g ai/ha, visual rating after 13 to 15 days, scale 0 (no effect) to 100 (complete control)
[18] = Preemergence, 16 g ai/ha, scale 0 to 100, 0 no effect, 100 complete control
[19] = Preemergence, 31 g ai/ha, scale 0 to 100 (0 no effect, 100 complete control)
[20] = Preemergence, 62 g ai/ha, scale 0 to 100, 0 no effect, 100 complete control
[21] = Preemergence, 125 g ai/ha, scale 0 to 100, 0 no effect, 100 complete control

In the case of O=C1CCCC(O)=C1C(=O)c1cnc(-c2cccc(Br)c2)n(-c2ccccc2)c1=O [Compound 69], the “Plant response rating, Lambsquarters” value [1, 14] is reported as 100, the “Plant response rating, Lambsquarters” value [1, 15] is reported as 100 and the “Lambsquarters plant response rating (0 to 100 scale)” value [1, 16] is reported as 100. The “Plant response rating, Lambsquarters” value [1, 17] was 100, the “Plant response rating, Lambsquarters” value [1, 18] was 95 and the “Plant response rating, Lambsquarters” value [1, 19] was 98. For the same molecule, the “Plant response rating, Lambsquarters” value [1, 20] was 100, the “Plant response rating, Lambsquarters” value [1, 21] was 100 and the “Plant response rating, Corn” value (corn (Zea mays); [14]) was 0. The “Plant response rating, Corn” value (corn (Zea mays); [15]) was 5, the “Corn plant response rating (0 to 100 scale)” value (corn (Zea mays); [16]) was 10 and the “Plant response rating, Corn” value (corn (Zea mays); [17]) was 25. The “Plant response rating, Corn” value (corn (Zea mays); [18]) was 0, the “Plant response rating, Corn” value (corn (Zea mays); [19]) was 0 and the “Plant response rating, Corn” value (corn (Zea mays); [20]) was 0. For the same molecule, the “Plant response rating, Corn” value (corn (Zea mays); [21]) was 0, the “Plant response rating, Blackgrass” value [2, 14] was 0 and the “Plant response rating, Blackgrass” value [2, 15] was 0. For the same molecule, the “Blackgrass plant response rating (0 to 100 scale)” value [2, 16] was 0, the “Plant response rating, Blackgrass” value [2, 17] was 0 and the “Plant response rating, Blackgrass” value [2, 18] was 0. The “Plant response rating, Blackgrass” value [2, 19] was 0, the “Plant response rating, Blackgrass” value [2, 20] was 0 and the “Plant response rating, Blackgrass” value [2, 21] was 0. For the same molecule, the “Plant response rating, Kochia” value (kochia (Kochia scoparia); [14]) was 60, the “Plant response rating, Kochia” value (kochia (Kochia scoparia); [15]) was 60 and the “Kochia plant response rating (0 to 100 scale)” value (kochia (Kochia scoparia); [16]) was 70. The “Plant response rating, Kochia” value (kochia (Kochia scoparia); [17]) was 80, the “Plant response rating, Kochia” value (kochia (Kochia scoparia); [19]) was 0 and the “Plant response rating, Kochia” value (kochia (Kochia scoparia); [20]) was 20. The “Plant response rating, Kochia” value (kochia (Kochia scoparia); [21]) was 45, the “Plant response rating, Crabgrass, Large” value [3, 14] was 95 and the “Plant response rating, Crabgrass, Large” value [3, 15] was 95. For the same molecule, the “Crabgrass, Large plant response rating (0 to 100 scale)” value [3, 16] was 95, the “Plant response rating, Crabgrass, Large” value [3, 17] was 98 and the “Plant response rating, Crabgrass, Large” value [3, 18] was 75. The “Plant response rating, Crabgrass, Large” value [3, 19] was 98, the “Plant response rating, Crabgrass, Large” value [3, 20] was 100 and the “Plant response rating, Crabgrass, Large” value [3, 21] was 100. The “Plant response rating, Nutsedge, Yellow” value [4, 14] was 5, the “Plant response rating, Nutsedge, Yellow” value [4, 15] was 5 and the “Nutsedge, Yellow plant response rating (0 to 100 scale)” value [4, 16] was 10. The “Plant response rating, Nutsedge, Yellow” value [4, 17] was 40, the “Plant response rating, Nutsedge, Yellow” value [4, 18] was 0 and the “Plant response rating, Nutsedge, Yellow” value [4, 19] was 0. The “Plant response rating, Nutsedge, Yellow” value [4, 20] was 0, the “Plant response rating, Nutsedge, Yellow” value [4, 21] was 0 and the “Plant response rating, Morningglory” value [5, 14] was 65. For the same molecule, the “Plant response rating, Morningglory” value [5, 15] was 70, the “Morningglory plant response rating (0 to 100 scale)” value [5, 16] was 70 and the “Plant response rating, Morningglory” value [5, 17] was 75. For the same molecule, the “Plant response rating, Morningglory” value [5, 18] was 0, the “Plant response rating, Morningglory” value [5, 19] was 0 and the “Plant response rating, Morningglory” value [5, 20] was 0. The “Plant response rating, Morningglory” value [5, 21] was 0, the “Plant response rating, Johnsongrass” value [6, 14] was 75 and the “Plant response rating, Johnsongrass” value [6, 15] was 98. For the same molecule, the “Johnsongrass plant response rating (0 to 100 scale)” value [6, 16] was 100, the “Plant response rating, Johnsongrass” value [6, 17] was 100 and the “Plant response rating, Johnsongrass” value [6, 18] was 0. For the same molecule, the “Plant response rating, Johnsongrass” value [6, 19] was 5, the “Plant response rating, Johnsongrass” value [6, 20] was 45 and the “Plant response rating, Johnsongrass” value [6, 21] was 85. The “Plant response rating, Soybean” value (soybean (Glycine max); [14]) was 45, the “Plant response rating, Soybean” value (soybean (Glycine max); [15]) was 80 and the “Soybean plant response rating (0 to 100 scale)” value (soybean (Glycine max); [16]) was 90. The “Plant response rating, Soybean” value (soybean (Glycine max); [17]) was 98, the “Plant response rating, Goosegrass” value [7, 14] was 75 and the “Plant response rating, Goosegrass” value [7, 15] was 75. The “Goosegrass plant response rating (0 to 100 scale)” value [7, 16] was 80, the “Plant response rating, Goosegrass” value [7, 17] was 85 and the “Plant response rating, Goosegrass” value [7, 18] was 55. The “Plant response rating, Goosegrass” value [7, 19] was 95, the “Plant response rating, Goosegrass” value [7, 20] was 100 and the “Plant response rating, Goosegrass” value [7, 21] was 100. The “Plant response rating, Velvetleaf” value [8, 14] was 75, the “Plant response rating, Velvetleaf” value [8, 15] was 95 and the “Velvetleaf plant response rating (0 to 100 scale)” value [8, 16] was 98. For the same molecule, the “Plant response rating, Velvetleaf” value [8, 17] was 98, the “Plant response rating, Velvetleaf” value [8, 19] was 70 and the “Plant response rating, Velvetleaf” value [8, 20] was 70. For the same molecule, the “Plant response rating, Velvetleaf” value [8, 21] was 85, the “Plant response rating, Pigweed” value [9, 14] was 95 and the “Plant response rating, Pigweed” value [9, 15] was 98. The “Pigweed plant response rating (0 to 100 scale)” value [9, 16] was 100, the “Plant response rating, Pigweed” value [9, 17] was 100 and the “Plant response rating, Pigweed” value [9, 18] was 95. For the same molecule, the “Plant response rating, Pigweed” value [9, 19] was 98, the “Plant response rating, Pigweed” value [9, 20] was 100 and the “Plant response rating, Pigweed” value [9, 21] was 100. The “Plant response rating, Surinam Grass” value [10, 14] was 75, the “Plant response rating, Surinam Grass” value [10, 15] was 85 and the “Surinam Grass plant response rating (0 to 100 scale)” value [10, 16] was 90. The “Plant response rating, Surinam Grass” value [10, 17] was 100, the “Plant response rating, Surinam Grass” value [10, 19] was 80 and the “Plant response rating, Surinam Grass” value [10, 20] was 100. For the same molecule, the “Plant response rating, Surinam Grass” value [10, 21] was 100, the “Plant response rating, Cupgrass, Woolly” value [11, 14] was 75 and the “Plant response rating, Cupgrass, Woolly” value [11, 15] was 90. The “Cupgrass, Woolly plant response rating (0 to 100 scale)” value [11, 16] was 95, the “Plant response rating, Cupgrass, Woolly” value [11, 17] was 95 and the “Plant response rating, Cupgrass, Woolly” value [11, 18] was 0. The “Plant response rating, Cupgrass, Woolly” value [11, 19] was 0, the “Plant response rating, Cupgrass, Woolly” value [11, 20] was 0 and the “Plant response rating, Cupgrass, Woolly” value [11, 21] was 45. For the same molecule, the “Plant response rating, Bromegrass, Downy” value [12, 14] was 30, the “Plant response rating, Bromegrass, Downy” value [12, 15] was 40 and the “Bromegrass, Downy plant response rating (0 to 100 scale)” value [12, 16] was 55. For the same molecule, the “Plant response rating, Bromegrass, Downy” value [12, 17] was 70, the “Plant response rating, Bromegrass, Downy” value [12, 18] was 0 and the “Plant response rating, Bromegrass, Downy” value [12, 19] was 0. The “Plant response rating, Bromegrass, Downy” value [12, 20] was 0, the “Plant response rating, Bromegrass, Downy” value [12, 21] was 0 and the “Plant response rating, Oat, Wild” value (wild oat (Avena fatua); [14]) was 50. For the same molecule, the “Plant response rating, Oat, Wild” value (wild oat (Avena fatua); [15]) was 60, the “Oat, Wild plant response rating (0 to 100 scale)” value (wild oat (Avena fatua); [16]) was 80 and the “Plant response rating, Oat, Wild” value (wild oat (Avena fatua); [17]) was 85. For the same molecule, the “Plant response rating, Oat, Wild” value (wild oat (Avena fatua); [18]) was 0, the “Plant response rating, Oat, Wild” value (wild oat (Avena fatua); [19]) was 0 and the “Plant response rating, Oat, Wild” value (wild oat (Avena fatua); [20]) was 0. The “Plant response rating, Oat, Wild” value (wild oat (Avena fatua); [21]) was 0, the “Plant response rating, Foxtail, Green” value [13, 14] was 75 and the “Plant response rating, Foxtail, Green” value [13, 15] was 95. For the same molecule, the “Foxtail, Green plant response rating (0 to 100 scale)” value [13, 16] was 98, the “Plant response rating, Foxtail, Green” value [13, 17] was 100 and the “Plant response rating, Foxtail, Green” value [13, 20] was 70. The “Plant response rating, Foxtail, Green” value [13, 21] was 85.
